Ten compounds from patent US9273057B2 (Bristol-Myers Squibb Company, priority 2012, dated 2016) can be followed below.

For this test, the target named is CK2A1 (CK2α/β) (Homo sapiens, UniProt P68400). Kind of test: CK2 kinase assay, CK2A1 (CK2α/β). Particulars: Table A; read-out: CK2A1 (CK2α/β) (IC50). It is filed as biochemical.
Sequence of CK2A1 (CK2α/β) (P68400 whole entry, species assumed): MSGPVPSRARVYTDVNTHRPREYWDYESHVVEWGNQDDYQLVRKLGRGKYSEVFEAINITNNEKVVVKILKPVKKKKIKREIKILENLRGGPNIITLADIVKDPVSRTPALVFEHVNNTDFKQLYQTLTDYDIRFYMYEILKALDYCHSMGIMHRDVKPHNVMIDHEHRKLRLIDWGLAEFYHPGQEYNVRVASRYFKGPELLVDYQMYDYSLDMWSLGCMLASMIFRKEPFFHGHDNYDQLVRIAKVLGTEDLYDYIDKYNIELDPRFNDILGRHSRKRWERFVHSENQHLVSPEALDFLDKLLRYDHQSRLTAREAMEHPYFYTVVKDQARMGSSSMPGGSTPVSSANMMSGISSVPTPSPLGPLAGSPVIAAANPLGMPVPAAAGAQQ
Sequence of CK2A1 (CK2α/β) (P67870 whole entry partner, species assumed): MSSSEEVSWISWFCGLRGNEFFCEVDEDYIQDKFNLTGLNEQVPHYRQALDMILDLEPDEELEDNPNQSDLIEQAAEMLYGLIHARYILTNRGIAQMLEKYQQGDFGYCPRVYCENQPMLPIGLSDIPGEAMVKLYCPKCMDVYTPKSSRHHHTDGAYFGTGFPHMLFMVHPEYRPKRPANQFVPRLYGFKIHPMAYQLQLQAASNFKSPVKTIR
For the compound `CC1(C(=O)N2CC(N3CCN(c4cc(C#N)cc(Nc5nc(NC6CC6)c6ncc(C#N)n6n5)c4Cl)CC3)C2)COC1` [Example 522, 2-[(2-chloro-5-cyano-3-{4-[1-(3-methyloxetane-3-carbonyl)azetidin-3-yl]piperazin-1-yl}phenyl)amino]-4-(cyclopropylamino)imidazo[2,1-f][1,2,4]triazine-7-carbonitrile], the IC50 worked out at 3.69 nM. With `N#Cc1cc(Nc2nc(NC3CC3)c3ncc(C#N)n3n2)c(Cl)c(N2CCN(C3CN(C(=O)C4CCOC4)C3)CC2)c1` (stereo not shown) [Example 523, 2-[(2-chloro-5-cyano-3-{4-[1-(oxolane-3-carbonyl)azetidin-3-yl]piperazin-1-yl}phenyl)amino]-4-(cyclopropylamino)imidazo[2,1-f][1,2,4]triazine-7-carbonitrile] the figure was 4.77 nM.

Take `CCC(CO)(CO)C(=O)N1CC(N2CCN(c3cc(C#N)cc(Nc4nc(NC5CC5)c5ncc(C#N)n5n4)c3Cl)CC2)C1` [Example 524, 2-{[3-(4-{1-[2,2-bis(hydroxymethyl)butanoyl]azetidin-3-yl}piperazin-1-yl)-2-chloro-5-cyanophenyl]amino}-4-(cyclopropylamino)imidazo[2,1-f][1,2,4]triazine-7-carbonitrile]: the IC50 was determined as 7.45 nM. With `N#Cc1cc(Nc2nc(NC3CC3)c3ncc(C#N)n3n2)c(Cl)c(N2CCC(C3COC3)CC2)c1` [Example 525, 2-((2-chloro-5-cyano-3-(4-(oxetan-3-yl)piperidin-1-yl)phenyl)amino)-4-(cyclopropylamino)imidazo[2,1-f][1,2,4]triazine-7-carbonitrile] the figure was 3.2 nM; with `N#Cc1cc(Nc2nc(NC3CC3)c3ncc(C#N)n3n2)c(Cl)c(N2CCC(C(CO)CO)CC2)c1` [Example 526, 2-((2-chloro-5-cyano-3-(4-(1,3-dihydroxypropan-2-yl)piperidin-1-yl)phenyl)amino)-4-(cyclopropylamino)imidazo[2,1-f][1,2,4]triazine-7-carbonitrile], 0.42 nM; with `CC1(C)CC(CN2CCN(c3cc(C#N)cc(Nc4nc(NC5CC5)c5ncc(C#N)n5n4)c3Cl)CC2)O1` (stereo not shown) [Example 527, 2-((2-chloro-5-cyano-3-(4-((4,4-dimethyloxetan-2-yl)methyl)piperazin-1-yl)phenyl)amino)-4-(cyclopropylamino)imidazo[2,1-f][1,2,4]triazine-7-carbonitrile], 1.91 nM. The value for `C[C@@H]1CC(CN2CCN(c3cc(C#N)cc(Nc4nc(NC5CC5)c5ncc(C#N)n5n4)c3Cl)CC2)O1` (stereo partly drawn) [Example 528, 2-((2-chloro-5-cyano-3-(4-(((4R)-4-methyloxetan-2-yl)methyl)piperazin-1-yl)phenyl)amino)-4-(cyclopropylamino)imidazo[2,1-f][1,2,4]triazine-7-carbonitrile] was 0.4 nM.

For the compound `C[C@H]1CC(CN2CCN(c3cc(C#N)cc(Nc4nc(NC5CC5)c5ncc(C#N)n5n4)c3Cl)CC2)O1` (stereo partly drawn) [Example 529, 2-((2-chloro-5-cyano-3-(4-(((4S)-4-methyloxetan-2-yl)methyl)piperazin-1-yl)phenyl)amino)-4-(cyclopropylamino)imidazo[2,1-f][1,2,4]triazine-7-carbonitrile], the IC50 was determined as 1.33 nM.

Consider `C=C(C)/C=C/CN1CCN(c2cc(C#N)cc(Nc3nc(NC4CC4)c4ncc(C#N)n4n3)c2Cl)CC1` [Example 530, (E)-2-((2-chloro-5-cyano-3-(4-(4-methylpenta-2,4-dien-1-yl)piperazin-1-yl)phenyl)amino)-4-(cyclopropylamino)imidazo[2,1-f][1,2,4]triazine-7-carbonitrile], for which the IC50 was 6.24 nM. With `N#Cc1cc(Nc2nc(NC3CC3)c3ncc(C#N)n3n2)c(Cl)c(N2CCN(CC3CCCO3)CC2)c1` (stereo not shown) [Example 531, 2-((2-chloro-5-cyano-3-(4-((tetrahydrofuran-2-yl)methyl)piperazin-1-yl)phenyl)amino)-4-(cyclopropylamino)imidazo[2,1-f][1,2,4]triazine-7-carbonitrile] the figure was 0.44 nM.
